Results taken from PMC11638965, “Leveraging Dual-Ligase Recruitment to Enhance Protein Degradation via a Heterotrivalent Proteolysis Targeting Chimera” (Journal of the American Chemical Society, 2024).
“Also recorded” adds a separate entry of the source. Read-outs that look alike come from different tables or passages of the source.

What was measured:
VHL = target: T1, VHL (Homo sapiens, UniProt P40337); test: NanoBRET lytic and live cell target engagement assay; format: binding
T1 construct: host or cells: HEK293, transient
Experimental: CRBN (N2910, Promega) and VHL (N2930, Promega) NanoBRET target engagement assays were performed according to manufacturer’s instructions. Transfection complexes were prepared using 1 mL Opti-MEM, 30 μL FuGENE HD, and either 9 μg/mL DDB1 Expression Vector and 1 μg/mL NanoLuc-CRBN fusion vector, or 9 μg/mL Transfection Carrier DNA and 1 μg/mL VHL-NanoLuc fusion vector. Transfection complexes were allowed to form for 20 min at room temperature, then were added to 20 mL of HEK293 cells at density of 200,000 cells/mL. Transfected HEK293 cells were plated in a T75 flask and allowed to express protein overnight. The next day, 85 μL of transfected cells (at 200,000 cells/mL) were replated in white nonbinding 96-well plates for live and lytic target engagement measurements. For live mode, a 100x solution of NanoBRET tracer was prepared using 100% DMSO (50 μM for CRBN live-cell, 100 μM for VHL live-cell). 100x tracer was used to prepare 20× tracer using tracer dilution buffer. PROTACs or test compounds were prepared at 10x final concentrations in Opti-MEM. Five μL of the prepared tracer was then dispensed to each well and the plate was mixed on an orbital shaker at 300 rpm for 15 s. Ten μL of each 10x PROTAC dilution was added to the cells and the plate was mixed again before being incubated at a 37 °C, 5% CO2 incubator for 2 or 5 h (as indicated in each figure). After incubation, a 50 μL of a 3X substrate solution (containing 30 μL NanoBRET Nano-Glo Substrate, 10 μL Extracellular NanoLuc inhibitor, and 4960 μL of Opti-MEM) was added to each well. Plates were incubated for 2–3 min at room temperature, then donor emission (450 nm) and acceptor emission (at 610 nm) values were read using a GloMax Discover. For lytic mode, the following changes were made. 100x tracer concentration for CRBN was 13 μM, 100X tracer concentration for VHL was 25 μM, 75 μL of a 200,000 cell/mL solution was plated in white nonbinding 96-well plates, and 10 μL of a 10x digitonin solution was added immediately after the cells were treated with PROTACs. Plates were incubated in darkness for 5 min after digitonin addition to allow for permeabilization. 50 μL of 3X substrate (30 μL NanoBRET Nano-Glo substrate and 4970 μL Opti-MEM) was added to each well and plates were incubated for 1 min at room temperature before being read on a GloMax Discover as above.

[1] = system: HiBiT-BRD4 and HaloTag-VHL; test: NanoBRET live cell ternary complex formation assay; format: cell-based, human; conditions: HiBiT-BRD4 HEK293 cells, MG132 pretreatment, 0.01, 0.1 and 1 μM, 3.5 h
Experimental: NanoBRET ternary complex assays were performed using Promega kits for CRBN (ND2720) and VHL (ND2700) according to manufacturer’s instructions. One day prior to the assay, HEK293 HiBiT-BRD4 (LgBiT Stable) were plated at a density of 800,000 cells/well in a 6-well plate. Cells were allowed to adhere for at least 4 h. Transfection mixtures containing 100 μL Opti-MEM, 6 μL FuGENE HD, and either 2 μg HaloTag-CRBN or HaloTag-VHL were prepared and allowed to incubate for 10 min at room temperature prior to addition to the cells. The next day, cells were trypsinized and resuspended in phenol red-free Opti-MEM Reduced Serum Medium supplemented with 4% FBS. Cells were counted and density was adjusted to 200,000 cells/mL. Cells were divided into two pools: one which received HaloTag NanoBRET 618 Ligand at a final concentration of 100 nM and one which received the same volume of DMSO. Cells were plated on white tissue-culture 96-well plates (100 μL/well) and allowed to adhere overnight. The next day, media was aspirated from the cells and replaced with phenol red-free Opti-MEM Reduced Serum medium supplemented with 4% FBS and a 1:100 dilution of Nano-Glo Vivazine substrate (Promega) and 10 μM MG132. Luminescence was allowed to equilibrate at 37 °C, 5% CO2 for 1 h. During this time, a dilution series of each PROTAC at 10x the desired final concentration was prepared (keeping DMSO constant in all concentrations). 10 μL of this dilution series was added to the plate after luminescence equilibration, and kinetic measurements of donor emission at 460 nm and acceptor emission at 618 nm were collected every 3 min using a ClarioStar plate reader. milliBRET ratios were calculated as (Emission at 618 nm/Emission at 460 nm) × 1000. Donor-contributed background or bleedthrough was corrected for by subtracting milliBRET ratios from no ligand control cells from treated cells. Corrected milliBRET ratios were plotted as a function of time in GraphPad Prism.

[2] = HEK293 cells with NanoLuc-VHL, VHL fluorescent tracer, live cells 2 h, read-out: IC50 (Live Cell), Target: VHL
[3] = HEK293 cells with NanoLuc-VHL, VHL fluorescent tracer, lysed with digitonin, read-out: IC50 (Lytic Cell), Target: VHL
[4] = displacement of VHL tracer, live cell format, read-out: IC50 VHL, live cell format

T1 sequence (P40337 whole entry): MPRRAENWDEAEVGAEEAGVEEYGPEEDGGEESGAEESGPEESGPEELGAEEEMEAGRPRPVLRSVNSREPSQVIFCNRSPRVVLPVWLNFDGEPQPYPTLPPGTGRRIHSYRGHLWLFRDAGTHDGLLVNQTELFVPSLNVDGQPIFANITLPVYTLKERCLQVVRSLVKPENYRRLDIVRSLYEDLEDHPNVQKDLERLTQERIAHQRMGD

Row | IC50 (VHL; [2]) | IC50 (VHL; [3]) | IC50 (VHL; [4]) | IC50 (VHL; displacement of VHL tracer, lytic format, read-out: IC50 VHL, lytic format) | fold weaker at engaging VHL in live cell format than in lytic format (VHL; live vs lytic) | fold stronger binding to VHL with respect to 26, live cell format (VHL; 27 vs 26) | Compound | ternary complex formation between BRD4 and VHL (in words) [1] | ternary complex formation between BRD4 and VHL (in words) ([1]; listed as 27)
1 | > 10 µM | 1.82 µM | 2.3 µM | 1.82 µM | > 5.5 fold | – | Cc1ncsc1-c1ccc(CNC(=O)[C@@H]2C[C@@H](O)CN2C(=O)[C@@H](NC(=O)COCC(C)(COCCOCCOCCNc2cc3c(cc2F)C(=O)N(C2CCC(=O)NC2=O)C3=O)COCCOCCOCCOC(=O)C[C@@H]2N=C(c3ccc(Cl)cc3)c3c(sc(C)c3C)-n3c(C)nnc32)C(C)(C)C)cc1 (mixture of isomers) [AB3063 (26), (17S)-11-((2-(2-(2-((2-(2,6-dioxopiperidin-3-yl)-6-fluoro-1,3-dioxoisoindolin-5-yl)amino)ethoxy)ethoxy)ethoxy)methyl)-17-((2S,4R)-4-hydroxy-2-((4-(4-methylthiazol-5-yl)benzyl)carbamoyl)pyrrolidine-1-carbonyl)-11,18,18-trimethyl-15-oxo-3,6,9,13-tetraoxa-16-azanonadecyl 2-((S)-4-(4-chlorophenyl)-2,3,9-trimethyl-6H-thieno[3,2-f][1,2,4]triazolo[4,3-a][1,4]diazepin-6-yl)acetate] | can engage and form ternary complexes | –
2 | 2.28 µM | 0.559 µM | > 10 µM | – | – | > 4.4 fold | Cc1ncsc1-c1ccc([C@H](C)NC(=O)[C@@H]2C[C@@H](O)CN2C(=O)[C@@H](NC(=O)COCC(C)(COCCOCCOCCNc2cc3c(cc2F)C(=O)N(C2CCC(=O)NC2=O)C3=O)COCCOCCOCCOC(=O)C[C@@H]2N=C(c3ccc(Cl)cc3)c3c(sc(C)c3C)-n3c(C)nnc32)C(C)(C)C)cc1 (mixture of isomers) [AB3067 (27), (17S)-11-((2-(2-(2-((2-(2,6-dioxopiperidin-3-yl)-6-fluoro-1,3-dioxoisoindolin-5-yl)amino)ethoxy)ethoxy)ethoxy)methyl)-17-((2S,4R)-4-hydroxy-2-(((S)-1-(4-(4-methylthiazol-5-yl)phenyl)ethyl)carbamoyl)pyrrolidine-1-carbonyl)-11,18,18-trimethyl-15-oxo-3,6,9,13-tetraoxa-16-azanonadecyl 2-((S)-4-(4-chlorophenyl)-2,3,9-trimethyl-6H-thieno[3,2-f][1,2,4]triazolo[4,3-a][1,4]diazepin-6-yl)acetate] | – | can engage and form ternary complexes; also recorded: more robust dose–response with both VHL and CRBN than 26
